# Reference: patent US20180110742A1, “NMDA ANTAGONISTS FOR THE TREATMENT OF MENTAL DISORDERS WITH OCCURRENCE OF […]/OR IMPULSIVE BEHAVIOR” (ICM (INSTITUT DU CERVEAU ET DE LA MOELLE EPINIERE), priority 2015, published 2018)
# How the values were obtained:
# rhesus monkeys = test: Delayed saccade oculomotor paradigm (inhibition of premature saccades) after i.m. ketamine or saline; format: in vivo, rhesus monkey
# Excerpt: FIG. 2 is a diagram showing the sequence of events. The trial started with the appearance of a fixation cross for a randomized duration followed by the appearance of two empty ‘boxes’, one at the center of the screen and at a 9-deg eccentric position. After the appearance of the two boxes, a target was flashed in the central one for 50 milliseconds. Extinction of the central target marked the beginning of the delay period that could last either 400, 900, 1400 or 1900 ms. At the end of the delay period, a target appeared for 50 ms in the eccentric box and the subject had to make a saccade to the eccentric box within a 400 ms grace period.
# The experimental paradigm was designed to create a conflict between the urge to make a saccade to the peripheral box and the necessity to maintain fixation until the eccentric target appeared (FIG. 2). This required a strong inhibition of premature saccades before the appearance of the eccentric target.
# A total of 14104 saccades were analyzed in the three monkeys of the present study (L, S, Y). […] Positive values represent saccades occurring after target onset. We classified saccades as visually-guided for latencies longer than 100 ms. Latencies shorter than 100 ms represent premature (anticipatory) saccades. It can be observed that in the control condition (dashed curve on FIG. 3A), average saccadic latencies tended on average to decrease with increasing delay duration, more premature saccades occurring during long delays. […] However, a significant interaction between injected product (placebo or ketamine) and delay duration was found (F3; 6.012=8.195; P=0.015). […] Saccades in short delay trials (400 or 900 ms delays) were less affected than saccades when the delay was longer (1400 or 1900 ms). This influence of ketamine on movement latency was reproducible between monkeys.
# Three monkeys participated in the present study (referred to as L, S, Y). Apparatus
# Subjects sat in darkness, facing a CRT screen, which presented stimuli at a frequency of 60 Hz. An EyeLink 1000 infrared eye tracking system (SR Research, Mississauga, Ontario) was used to record movements of the right eye at 1 KHz. All experiments were run with homemade stimulus generation software based on a real time Linux kernel (Xenomaï). Stimulus display and oculomotor data collection were synchronized on a frame-by-frame basis. Saccades were detected offline in MATLAB (MathWorks, Natic, Mass.) with a velocity threshold of 30 deg/sec.
# Each trial started with an initial fixation period (referred to as ‘initial fixation’), with a small cross (0.7 deg) appearing on the CRT screen for a random duration (850±100 ms; see ‘X’ on FIG. 1). At the end of this random delay, two empty square ‘boxes’ appeared on the screen (1.4×1.4 deg), one in the center of the screen and one 9 deg eccentric, randomly to the right or to the left. […] Afterwards, a square target (1.4×1.4 deg) was flashed in the central box for 50 ms. Extinction of the initial target indicated to subjects the beginning of the delay period. Subjects were required to hold on fixation of the central box until another target (1.4×1.4 deg) was briefly presented for 50 ms in the eccentric box. In the variable fore period design, the delay period could take one of 4 different values with the same probability: 400 ms, 900 ms, 1400 ms and 1900 ms. In order to receive reward, subjects had to maintain fixation of the central box and wait for the appearance of the eccentric target. This required a strong inhibition of early saccades before the appearance of the eccentric target. Early saccades were not rewarded. This paradigm was designed to test inhibition during the delay period.
# Each experimental session started with a block of 200 trials before injection to measure the baseline saccadic latency on a day-by-day basis. On a randomly selected day ketamine (0.250 mg/kg) was injected i.m. or a placebo saline solution (NaCl 0.9%) of the same volume (0.3 ml). […]
# [1] = system: supplementary eye field (SEF) neurons; test: Single-neuron recordings of saccade-related and fixation neurons during the saccade task; format: in vivo, rhesus monkey; conditions: 0.25 mg/kg i.m.; for average neuronal activity of fixation units/neurons: delay and saccadic period, 0.25 mg/kg
# Excerpt: FIG. 9 is a graph showing the average neuronal activity (spike density) of 30 movement-related supplementary eye field (SEF) neurons during fixation (negative time), delay (between the two vertical dashed lines) and after saccade appearance (after the second dashed lined). Group data. A: delay duration: 400 ms. B: delay duration: 900 ms. C: delay duration: 1400 ms. D: delay duration: 1900 ms. […] This can be associated with the decrease of premature saccades.
# FIG. 10 is a graph showing the average neuronal activity of “fixation” units during fixation, delay and saccadic period. Group data. A: delay duration: 400 ms. B: delay duration: 900 ms. C: delay duration: 1400 ms. D: delay duration: 1900 ms. […] This could be related to the enhanced inhibition capacity and reduction of impulsive behavior observed.
# Neuronal activity of two animals was recorded on neurons with phasic discharge during the saccade (saccadic-relayed neurons, FIG. 9) and neurons with tonic activity when the eye is immobile (fixation neurons, FIG. 10). Average activity of 30 neurons is shown in the control condition (no ketamine) and after injection of 0.25 mg/kg ketamine i.m.
# One male and one female rhesus monkey were used in this study. All procedures were approved by the Institutional Animal Care and Use Committee and were in compliance with the guidelines set forth in the United States Public Health Service Guide for the Care and Use of Laboratory Animals.
# A celux recording chamber (Crist Instruments, Hagerstown, Md.) was positioned at 24 mm anterior in Horsley-Clark stereotaxic coordinates and centered on the midline of the brain in both monkeys. At the completion of the surgeries, animals were returned to their home cages. Antibiotics and analgesics were administered as needed during the recovery period under the direction of a veterinarian.
# The monkeys were seated in a primate chair with their head restrained for the duration of the testing sessions. They were trained to execute the behavioral task described above for liquid reward and were allowed to work to satiation. Records of each animal's weight and health status were kept, and supplemental water was given as necessary. The monkeys had their heads immobilized and were trained to pursue spots of light projected on a tangent screen in front of them.
# To record neuronal activity, a single tungsten microelectrode (FHC, Bowdoinham, Me.) of approximately 6 MΩ impedance at 1 kHz was lowered into the cortex through the dura using a Narishige microdrive. The position of the electrode was determined using a grid system (Crist et al., 1988). Action potentials of single units were isolated using an on-line spike-sorting system that uses a template-matching algorithm (Plexon Inc). A pulse was generated each time an action potential was detected and stored with a 1 ms resolution.
# To analyze the time course of neuronal activity, spike trains were convolved with a Gaussian probability density in steps of 1 ms to generate the spike-density function (Richmond et al., 1987). The SD of the Gaussian function was set to 20 ms. The average spike density in each experimental condition was computed from all trials in which subjects pursued the target until the end of its trajectory.
# [2] = higher doses, e.g. 0.6 mg/kg; cited from earlier work
# [3] = Total of monkeys L, S, Y, 0.25 mg/kg i.m.
compound,measurement,setting,value
CNC1(c2ccccc2Cl)CCCCC1=O (stereo not drawn) [ketamine],spontaneous nystagmus or centripetal drift of the eye,rhesus monkeys; 0.25 mg/kg,did not evoke spontaneous nystagmus or centripetal drift of the eye
same,latency variance,"rhesus monkeys; 0.25 mg/kg i.m., as a function of delay duration",latency variance decreased
same,reduction of premature saccades by delay duration,"rhesus monkeys; 0.25 mg/kg i.m., delay durations 400-1900 ms",particularly strong for long delay durations (1400 ms and 1900 ms)
same,saccadic latency as a function of delay duration,"rhesus monkeys; 0.25 mg/kg i.m., delays 400, 900, 1400, 1900 ms, group data",prolonged saccadic latencies differently with increasing delay duration
same,saccadic latency (all saccades),"rhesus monkeys; 0.25 mg/kg i.m., group data of three monkeys, two blocks of trials following injection",altered saccadic latency
same,number of premature saccades,"rhesus monkeys; 0.25 mg/kg i.m., group data, vs saline",strongly and significantly reduced
same,average premature saccade latency,"rhesus monkeys; 0.25 mg/kg i.m., saccades with latency <100 ms, group data",not affected
same,Premature saccades (number),"rhesus monkeys; Monkey L, 0.25 mg/kg i.m.",408
same,Premature saccades (percentage of total),"rhesus monkeys; Monkey L, 0.25 mg/kg i.m.",(21%)
same,Visually guided saccades (number),"rhesus monkeys; Monkey L, 0.25 mg/kg i.m.",1520
same,Visually guided saccades (percentage of total),"rhesus monkeys; Monkey L, 0.25 mg/kg i.m.",(79%
same,saccade amplitude,"rhesus monkeys; Monkey L, 0.25 mg/kg i.m., control 5.7±0.05 deg",5.2±0.05 deg
same,decrease of the proportion of valid trials,"rhesus monkeys; Monkey L, after ketamine injection 0.25 mg/kg i.m.",~5%
same,Premature saccades (number),"rhesus monkeys; Monkey S, 0.25 mg/kg i.m.",21
same,Premature saccades (percentage of total),"rhesus monkeys; Monkey S, 0.25 mg/kg i.m.",(7%)
same,Visually guided saccades (number),"rhesus monkeys; Monkey S, 0.25 mg/kg i.m.",2939
same,Visually guided saccades (percentage of total),"rhesus monkeys; Monkey S, 0.25 mg/kg i.m.",(93%)
same,increase of the proportion of valid trials,"rhesus monkeys; Monkey S, after ketamine injection 0.25 mg/kg i.m.",~10%
same,Premature saccades (number),"rhesus monkeys; Monkey Y, 0.25 mg/kg i.m.",150
same,Premature saccades (percentage of total),"rhesus monkeys; Monkey Y, 0.25 mg/kg i.m.",(6%)
same,Visually guided saccades (number),"rhesus monkeys; Monkey Y, 0.25 mg/kg i.m.",2537
same,Visually guided saccades (percentage of total),"rhesus monkeys; Monkey Y, 0.25 mg/kg i.m.",(94%)
same,saccade amplitude,"rhesus monkeys; Monkey Y, 0.25 mg/kg i.m., control 5.7±0.03 deg",6.2±0.04 deg
same,proportion of valid trials,"rhesus monkeys; Monkey Y, after ketamine injection 0.25 mg/kg i.m.",unchanged
same,premature saccades after single injection (saccadic latency vs trial number),"rhesus monkeys; Monkey Y, single injection",sharp decrease of premature saccades
same,trials after injection until the number of early anticipatory saccades was strongly reduced,"rhesus monkeys; Monkey Y, single injection 0.25 mg/kg i.m.",Approximately 100 trials
same,return of premature saccades frequency to control levels,"rhesus monkeys; Monkey Y, single injection 0.25 mg/kg i.m., blocks of 200 trials",Only during the third block following injection
same,trials until cumulated sums of latencies of control and ketamine diverged,"rhesus monkeys; Monkeys Y and L, 13 injections, 0.25 mg/kg i.m.",approximately 75 trials
same,Premature saccades (number),rhesus monkeys; [3],579
same,Visually guided saccades (number),rhesus monkeys; [3],6996
same,time for ketamine to affect saccade latency,"rhesus monkeys; after the onset of the second block of trials, single trial 3300 ms on average",approximately 4 minutes
same,average difference in the latency of visually-guided saccade between conditions,"rhesus monkeys; ketamine 0.25 mg/kg i.m. vs saline, saccades with latency >100 ms, group data",approx. 10 ms
same,"saccade amplitude, group data","rhesus monkeys; monkeys L and Y, 0.25 mg/kg i.m., 0.25 mg/kg",did not reduce saccade amplitude
same,"saccade amplitude, group data","rhesus monkeys; monkeys L and Y, 0.25 mg/kg i.m., listed as Ketamine, 0.25 mg/kg",modestly reduced saccadic amplitude
same,saccade amplitude changes,"rhesus monkeys; monkeys L and Y, ketamine vs control",~10%
same,"proportion of valid trials, group level","rhesus monkeys; three monkeys, 0.25 mg/kg i.m.",did not statistically alter the proportion of valid trials
same,activity of premotor saccadic neurons,[1]; two animals,decreases the activity of premotor saccadic neurons
same,average neuronal activity of movement-related SEF neurons after target appearance,[1]; 30 neurons,reduces activity after target appearance
same,average neuronal activity (spike density) of movement-related SEF neurons during the delay period,"[1]; 30 neurons, delays 400-1900 ms",reduces neuronal activity during the delay period
same,average neuronal activity of fixation units/neurons,[1],increases the activity of fixation neurons
same,average neuronal activity of fixation units/neurons,[1]; listed as Ketamine,"increased the fixation, delay and initial saccadic period"
same,spontaneous nystagmus or centripetal drift of the eye,[2],could be observed with higher doses
